Assay results reported in ChEMBL document CHEMBL5518201, “Glycan-Modified Peptides for Dual Inhibition of Human Immunodeficiency Virus Entry into Dendritic Cells and T Cells” (J Med Chem, 2024).

Tested on: Human immunodeficiency virus 1
Test: Antiviral activity against HIV-1 pseudovirus infected in HEK293T cells transfected with DC-SIGN assessed as inhibition of viral entry into cells at 500 uM preincubated with compound for 2 hrs followed by viral addition and measured after 4 hrs by p24 ELISA relative to control
Format: functional
Details: Human immunodeficiency virus 1, HEK-293T, time 6 hrs

In the case of [N-]=[N+]=NCCO[C@H]1O[C@H](CO[C@H]2O[C@H](CO)[C@@H](O)[C@H](O)[C@@H]2O[C@H]2O[C@H](CO)[C@@H](O)[C@H](O)[C@@H]2O)[C@@H](O)[C@H](O[C@H]2O[C@H](CO)[C@@H](O)[C@H](O)[C@@H]2O[C@H]2O[C@H](CO)[C@@H](O)[C@H](O)[C@@H]2O)[C@@H]1O, the inhibition at 500 µM is reported as 15%.
